{"source": "patent US9695155B2", "about": "“Herbicidal substituted pyrimidinyloxy benzene compounds” (E. I. DU PONT DE NEMOURS AND COMPANY, priority 2013, dated 2017)", "key": {"Brazilian crabgrass": {"tested_on": "Brazilian crabgrass", "assay": "Test E postemergence", "format": "in vivo, Digitaria horizontalis", "settings": "Postemergence, scale 0 to 100", "method_in_brief": "(§1)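 Compound in a non-phytotoxic solvent mixture with surfactant was applied preemergence to seeds in silt loam soil, or postemergence to plants 2 to 18 cm tall grown in peat-based potting medium. Plants were kept in a greenhouse for 14 to 21 days, then rated visually against untreated controls on a 0 (no effect) to 100 (complete control) scale.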"}, "goosegrass": {"tested_on": "goosegrass", "assay": "Test E preemergence", "format": "in vivo, Eleusine indica", "settings": "for Goosegrass plant response rating: scale 0 to 100 (0 no effect, 100 complete control); for Plant response rating, Goosegrass: scale 0 to 100, 0 no effect, 100 complete control", "method_in_brief": "as §1"}, "corn": {"tested_on": "corn", "assay": "Test E postemergence", "format": "in vivo, Zea mays", "settings": "Postemergence, scale 0 to 100", "method_in_brief": "as §1"}, "yellow nutsedge": {"tested_on": "yellow nutsedge", "assay": "Test E preemergence", "format": "in vivo, Cyperus esculentus", "settings": "for Nutsedge, Yellow plant response rating: scale 0 to 100 (0 no effect, 100 complete control); for Plant response rating, Nutsedge, Yellow: scale 0 to 100, 0 no effect, 100 complete control", "method_in_brief": "as §1"}, "ragweed": {"tested_on": "ragweed", "assay": "Test E preemergence", "format": "in vivo, Ambrosia elatior", "settings": "for Ragweed plant response rating: scale 0 to 100 (0 no effect, 100 complete control); for Plant response rating, Ragweed: scale 0 to 100, 0 no effect, 100 complete control", "method_in_brief": "as §1"}, "soybean": {"tested_on": "soybean", "assay": "Test E preemergence", "format": "in vivo, Glycine max", "settings": "for Soybean plant response rating: scale 0 to 100 (0 no effect, 100 complete control); for Plant response rating, Soybean: scale 0 to 100, 0 no effect, 100 complete control", "method_in_brief": "as §1"}, "barnyardgrass": {"tested_on": "barnyardgrass", "assay": "Test E postemergence", "format": "in vivo, Echinochloa crus-galli", "settings": "Postemergence, scale 0 to 100", "method_in_brief": "as §1"}, "dayflower [1]": {"tested_on": "dayflower", "assay": "Test E preemergence", "format": "in vivo, Commelina virginica", "settings": "for Dayflower, VA plant response rating: scale 0 to 100 (0 no effect, 100 complete control); for Plant response rating, Dayflower, VA: scale 0 to 100, 0 no effect, 100 complete control", "method_in_brief": "as §1"}, "hairy beggarticks [2]": {"tested_on": "hairy beggarticks", "assay": "Test E preemergence", "format": "in vivo, Bidens pilosa", "settings": "for Beggarticks plant response rating: scale 0 to 100 (0 no effect, 100 complete control); for Plant response rating, Beggarticks: scale 0 to 100, 0 no effect, 100 complete control", "method_in_brief": "as §1"}, "lambsquarters": {"tested_on": "lambsquarters", "assay": "Test E preemergence", "format": "in vivo, Chenopodium album", "settings": "for Lambsquarters plant response rating: scale 0 to 100 (0 no effect, 100 complete control); for Plant response rating, Lambsquarters: scale 0 to 100, 0 no effect, 100 complete control", "method_in_brief": "as §1"}, "Italian ryegrass": {"tested_on": "Italian ryegrass", "assay": "Test E preemergence", "format": "in vivo, Lolium multiflorum", "settings": "for Ryegrass, Italian plant response rating: scale 0 to 100 (0 no effect, 100 complete control); for Plant response rating, Ryegrass, Italian: scale 0 to 100, 0 no effect, 100 complete control", "method_in_brief": "as §1"}, "waterhemp": {"tested_on": "waterhemp", "assay": "Test E preemergence", "format": "in vivo, Amaranthus rudis", "settings": "for Waterhemp plant response rating: scale 0 to 100 (0 no effect, 100 complete control); for Plant response rating, Waterhemp: scale 0 to 100, 0 no effect, 100 complete control", "method_in_brief": "as §1"}, "hairy beggarticks [3]": {"tested_on": "hairy beggarticks", "assay": "Test E postemergence", "format": "in vivo, Bidens pilosa", "settings": "Postemergence, scale 0 to 100", "method_in_brief": "as §1"}, "sandbur": {"tested_on": "sandbur", "assay": "Test E preemergence", "format": "in vivo, Cenchrus echinatus", "settings": "for Sandbur plant response rating: scale 0 to 100 (0 no effect, 100 complete control); for Plant response rating, Sandbur: scale 0 to 100, 0 no effect, 100 complete control", "method_in_brief": "as §1"}, "dayflower [4]": {"tested_on": "dayflower", "assay": "Test E postemergence", "format": "in vivo, Commelina virginica", "settings": "Postemergence, scale 0 to 100", "method_in_brief": "as §1"}, "field bindweed": {"tested_on": "field bindweed", "assay": "Test E preemergence", "format": "in vivo, Convolvulus arvensis", "settings": "for Field Bindweed plant response rating: scale 0 to 100 (0 no effect, 100 complete control); for Plant response rating, Field Bindweed: scale 0 to 100, 0 no effect, 100 complete control", "method_in_brief": "as §1"}}}
{"smiles": "N#Cc1cccc(Oc2ncc(Cl)cn2)c1-n1cc(Cl)cn1", "note": "[Compound 72]", "values": [{"measurement": "Plant response rating, Crabgrass, Brazil", "setting": "Brazilian crabgrass; 62 g ai/ha", "value": 10}, {"measurement": "Plant response rating, Crabgrass, Brazil", "setting": "Brazilian crabgrass; 125 g ai/ha", "value": 20}, {"measurement": "Goosegrass plant response rating", "setting": "goosegrass; 16 g ai/ha", "value": 0}, {"measurement": "Goosegrass plant response rating", "setting": "goosegrass; 31 g ai/ha", "value": 60}, {"measurement": "Goosegrass plant response rating", "setting": "goosegrass; 62 g ai/ha", "value": 80}, {"measurement": "Plant response rating, Goosegrass", "setting": "goosegrass; 125 g ai/ha", "value": 98}, {"measurement": "Plant response rating, Goosegrass", "setting": "goosegrass; 250 g ai/ha", "value": 100}, {"measurement": "Plant response rating, Corn", "setting": "corn; 62 g ai/ha", "value": 15}, {"measurement": "Plant response rating, Corn", "setting": "corn; 125 g ai/ha", "value": 10}, {"measurement": "Nutsedge, Yellow plant response rating", "setting": "yellow nutsedge; 16 g ai/ha", "value": 0}, {"measurement": "Nutsedge, Yellow plant response rating", "setting": "yellow nutsedge; 31 g ai/ha", "value": 0}, {"measurement": "Nutsedge, Yellow plant response rating", "setting": "yellow nutsedge; 62 g ai/ha", "value": 0}, {"measurement": "Plant response rating, Nutsedge, Yellow", "setting": "yellow nutsedge; 125 g ai/ha", "value": 25}, {"measurement": "Plant response rating, Nutsedge, Yellow", "setting": "yellow nutsedge; 250 g ai/ha", "value": 50}, {"measurement": "Ragweed plant response rating", "setting": "ragweed; 16 g ai/ha", "value": 0}, {"measurement": "Ragweed plant response rating", "setting": "ragweed; 31 g ai/ha", "value": 0}, {"measurement": "Ragweed plant response rating", "setting": "ragweed; 62 g ai/ha", "value": 5}, {"measurement": "Plant response rating, Ragweed", "setting": "ragweed; 125 g ai/ha", "value": 50}, {"measurement": "Plant response rating, Ragweed", "setting": "ragweed; 250 g ai/ha", "value": 95}, {"measurement": "Soybean plant response rating", "setting": "soybean; 16 g ai/ha", "value": 0}, {"measurement": "Soybean plant response rating", "setting": "soybean; 31 g ai/ha", "value": 10}, {"measurement": "Soybean plant response rating", "setting": "soybean; 62 g ai/ha", "value": 25}, {"measurement": "Plant response rating, Soybean", "setting": "soybean; 125 g ai/ha", "value": 70}, {"measurement": "Plant response rating, Soybean", "setting": "soybean; 250 g ai/ha", "value": 90}, {"measurement": "Plant response rating, Barnyardgrass", "setting": "barnyardgrass; 62 g ai/ha", "value": 0}, {"measurement": "Plant response rating, Barnyardgrass", "setting": "barnyardgrass; 125 g ai/ha", "value": 10}, {"measurement": "Dayflower, VA plant response rating", "setting": "dayflower [1]; 16 g ai/ha", "value": 0}, {"measurement": "Dayflower, VA plant response rating", "setting": "dayflower [1]; 31 g ai/ha", "value": 0}, {"measurement": "Dayflower, VA plant response rating", "setting": "dayflower [1]; 62 g ai/ha", "value": 35}, {"measurement": "Plant response rating, Dayflower, VA", "setting": "dayflower [1]; 125 g ai/ha", "value": 65}, {"measurement": "Plant response rating, Dayflower, VA", "setting": "dayflower [1]; 250 g ai/ha", "value": 95}, {"measurement": "Beggarticks plant response rating", "setting": "hairy beggarticks [2]; 16 g ai/ha, preemergence", "value": 0}, {"measurement": "Beggarticks plant response rating", "setting": "hairy beggarticks [2]; 31 g ai/ha, preemergence", "value": 0}, {"measurement": "Plant response rating, Beggarticks", "setting": "hairy beggarticks [2]; Preemergence, 62 g ai/ha", "value": 5}, {"measurement": "Plant response rating, Beggarticks", "setting": "hairy beggarticks [2]; preemergence, 125 g ai/ha", "value": 5}, {"measurement": "Plant response rating, Beggarticks", "setting": "hairy beggarticks [2]; preemergence, 250 g ai/ha", "value": 30}, {"measurement": "Lambsquarters plant response rating", "setting": "lambsquarters; 16 g ai/ha", "value": 0}, {"measurement": "Lambsquarters plant response rating", "setting": "lambsquarters; 31 g ai/ha", "value": 90}, {"measurement": "Lambsquarters plant response rating", "setting": "lambsquarters; 62 g ai/ha", "value": 100}, {"measurement": "Plant response rating, Lambsquarters", "setting": "lambsquarters; 125 g ai/ha", "value": 100}, {"measurement": "Plant response rating, Lambsquarters", "setting": "lambsquarters; 250 g ai/ha", "value": 100}, {"measurement": "Ryegrass, Italian plant response rating", "setting": "Italian ryegrass; 16 g ai/ha", "value": 0}, {"measurement": "Ryegrass, Italian plant response rating", "setting": "Italian ryegrass; 31 g ai/ha", "value": 15}, {"measurement": "Ryegrass, Italian plant response rating", "setting": "Italian ryegrass; 62 g ai/ha", "value": 20}, {"measurement": "Plant response rating, Ryegrass, Italian", "setting": "Italian ryegrass; 125 g ai/ha", "value": 35}, {"measurement": "Plant response rating, Ryegrass, Italian", "setting": "Italian ryegrass; 250 g ai/ha", "value": 75}, {"measurement": "Waterhemp plant response rating", "setting": "waterhemp; 16 g ai/ha", "value": 95}, {"measurement": "Waterhemp plant response rating", "setting": "waterhemp; 31 g ai/ha", "value": 98}, {"measurement": "Waterhemp plant response rating", "setting": "waterhemp; 62 g ai/ha", "value": 100}, {"measurement": "Plant response rating, Waterhemp", "setting": "waterhemp; 125 g ai/ha", "value": 100}, {"measurement": "Plant response rating, Waterhemp", "setting": "waterhemp; 250 g ai/ha", "value": 100}, {"measurement": "Plant response rating, Beggarticks", "setting": "hairy beggarticks [3]; 62 g ai/ha", "value": 70}, {"measurement": "Plant response rating, Beggarticks", "setting": "hairy beggarticks [3]; 125 g ai/ha", "value": 80}, {"measurement": "Sandbur plant response rating", "setting": "sandbur; 16 g ai/ha", "value": 25}, {"measurement": "Sandbur plant response rating", "setting": "sandbur; 31 g ai/ha", "value": 40}, {"measurement": "Sandbur plant response rating", "setting": "sandbur; 62 g ai/ha", "value": 30}, {"measurement": "Plant response rating, Sandbur", "setting": "sandbur; 125 g ai/ha", "value": 35}, {"measurement": "Plant response rating, Sandbur", "setting": "sandbur; 250 g ai/ha", "value": 50}, {"measurement": "Plant response rating, Dayflower, VA", "setting": "dayflower [4]; 62 g ai/ha", "value": 50}, {"measurement": "Plant response rating, Dayflower, VA", "setting": "dayflower [4]; 125 g ai/ha", "value": 60}, {"measurement": "Field Bindweed plant response rating", "setting": "field bindweed; 16 g ai/ha", "value": 0}, {"measurement": "Field Bindweed plant response rating", "setting": "field bindweed; 31 g ai/ha", "value": 5}, {"measurement": "Field Bindweed plant response rating", "setting": "field bindweed; 62 g ai/ha", "value": 10}, {"measurement": "Plant response rating, Field Bindweed", "setting": "field bindweed; 125 g ai/ha", "value": 60}, {"measurement": "Plant response rating, Field Bindweed", "setting": "field bindweed; 250 g ai/ha", "value": 95}]}
